Results taken from patent US8415158B2, “Compositions and methods useful for culturing differentiable cells” (ViaCyte, Inc., priority 2006, dated 2013).
Each block holds one compound with its values, some of them ahead of it.

What was measured:
BG02 hESCs = assay: Proliferation of hESCs growing in conditioned medium with AG825; assay type: cell-based, human; conditions: 50 μM (FIG. 6A)
Text: (§1) Colony and cell-counting assays confirmed that LongR3-IGF1 and HRG played the major roles in self-renewal and proliferation in the context of one of the embodiments of the present invention (FIGS. 6D, 6E). Phosphorylation of IGF1R, IR, FGF2a, ErbB2, and ErbB3 was also observed in both steady-state DC-HAIF cultures, and in starved cultures that were pulsed with DC-HAIF (FIG. 6F).

ErbB2 = target: T1, ErbB2 (Homo sapiens, UniProt P04626); assay: Western blotting of ErbB2 autophosphorylation in starved/heregulin pulsed hESCs; assay type: cell-based; conditions: starved/heregulin pulsed hESCs growing in DC-HAIF
T1 construct: endogenous in cells; host or cells: human embryonic stem cells (hESCs) grown in DC-HAIF
Text: as §1

BG01v cells = assay: Proliferation of BG01v cells with ErbB tyrosine kinase inhibitors, alkaline phosphatase staining; assay type: cell-based; conditions: 5 days
Method: To examine the effect of known inhibitors of ErbB tyrosine kinases in hESCs, BG01 v cells were plated in 6 well trays on […]™ diluted at 1:1000, in defined culture medium (DC) containing 100 ng/ml LongR3-IGF1, 8 ng/ml FGF2 and 1 ng/ml Activin A. On the next day, DMSO (carrier control), 50 nM-20 μM AG1478 (an ErbB1 inhibitor), or 100 nM-20 μM AG879 (an ErbB2 inhibitor) was added with fresh medium. The cells were cultured for an additional 5 days, with daily media changes. The cultures were then fixed and stained for alkaline phosphatase activity.

R1 mouse ES cells = assay: Proliferation of R1 mouse ES cells with ErbB tyrosine kinase inhibitors, alkaline phosphatase staining; assay type: cell-based
Method: AG1478 and AG879 were used to examine the role of HRG/ErbB signaling in mouse ES cells. R1 mouse ES cells were maintained in standard conditions in DMEM, 10% FBS, 10% KSR, 0.5 U/ml penicillin, 0.5 U/ml streptomycin, 1×NEAA, 1 mM sodium pyruvate, 1000 U/ml LIF (ESGRO), 0.1 mM 13-ME, and were passaged with 0.5% trypsin/EDTA. 2×10^5 cells/well were plated in 6 well trays on […]™ diluted at 1:1000. The day after plating, DMSO (carrier control), 1-50 μM AG1478, or 1-50 μM AG879 was added with fresh medium. The cells were cultured an additional 8 days, with daily media changes. The cultures were then fixed and stained for alkaline phosphatase activity.

BG02 cells = assay: Suspension culture of BG02 cells with and without apoptosis inhibitor, cell counting; assay type: cell-based, human
Method: Starting cultures of BG02 cells were maintained in DC-HAIF medium on dishes coated with 1:200 matrigel, as described herein and were split by passaging with ACCUTASE™. To initiate suspension culture, BG02 cells were disaggregated with ACCUTASE™ and placed in low attachment 6-well trays at a density of 1.6, 3, or 6×10^5 cells/ml (0.5, 1, or 2×10^6 cells in 3 ml volumes) in DC-HAIF medium. The trays were placed on a rotating platform at 80-100 rpm in a humidified incubator with 5% CO2. Under these conditions hESCs coalesced into small spheres of morphologically viable cells within 24 hours.
To attenuate the loss of cells after initial passaging in suspension, an inhibitor of apoptosis was added to the medium. Cells were passaged as in Example 12, except that Y-27632, an inhibitor of p160-Rho-associated coiled-coil kinase (ROCK), was added to the medium.
Suspension aggregates of BG02 cells were formed by seeding 2×10^6 single cells in 6-well dishes in 3 ml DC-HAIF medium, at 100 rpm on a rotating platform in an incubator (Table 2, Experiment A). 10 μM Y27632 ROCK inhibitor was added to test wells for the course of the experiment and the cultures observed daily and counted after 24 hours (day 1) and after 4 or 5 days. […] Cell counting confirmed that more viable cells were present in the presence of inhibitor (Table 2, Experiment A). This difference in cell number persisted throughout the course of the culture period, with more cells also observed on day 4, compared to cultures without inhibitor. As with previous suspension culture experiments, cells exposed to Y27632 could also be serially passaged, and maintained in an undifferentiated state (not shown).
As previous experiments had shown that growth rates of cells in suspension and adherent culture were similar after the initial 24 hours, an experiment was performed where Y27632 was removed after this initial period (Table 2, Experiment B). […] 1.4×10^7 (+Y27632) and 1.8×10^7 (+/−Y27632) viable cells were generated when inhibitor was present compared to 3.9×10^6 cells in untreated cultures. This analysis confirmed that Y27632 had the largest impact during the first 24 hours of suspension hESC culture.
Because of the enhanced survival and aggregation observed in the presence of Y27632, an experiment was performed to examine if it was possible to reduce the number of cells used to seed suspension cultures (Table 2, Experiment C). […] To determine if addition of a ROCK inhibitor would allow cell seeding at lower densities, a range of cell concentrations (from about 2×10^6 total cells down to about 1×10^5 total cells was used to seed suspension cultures in 6-well trays cells in 3 ml DC-HAIF. 10 μM Y27632 was added to all conditions, and the cell number and viability assessed on day 5. Successful aggregation and expansion was observed even at low seeding densities. An approxiate 13 fold expansion of viable cells was observed even cultures that were only seeded with 1×10^5 cells. Inhibition of ROCK with Y27632 therefore facilitated initial survival of hESCs at much lower densities in this suspension system.

ES cells = assay: Suspension cultures in various media, cell counting; assay type: cell-based; conditions: added to HAIF, HAI and HI conditions
Method: To determine if suspensions of ES cells could be cultured in the absence of FGF2 and/or Activin A, ES cells were cultured in a variety of media, with and without these factors. […] In addition, the cells in each media were successfully passaged with no morphological signs of differentiation.

hESCs = assay: Titration of insulin and IGF1 at physiological levels, hESC proliferation; assay type: cell-based, human; conditions: titrated from about 0.2 to about 200 ng/ml, cells counted after 5 days
Method: Essentially all of the reported culture conditions for hESCs to date include supraphysiological levels of insulin, which can stimulate both IR and IGF1R. To distinguish the activities that insulin and insulin-substitutes exert, compared to IGF1, hESCs are cultured in defined media conditions in physiological levels of these growth factors. The concentrations of insulin and IGF1 are titrated from about 0.2 to about 200 ng/ml and cell proliferation is monitored by counting cells after 5 days. Cultures that expand successfully are serially passaged 5 times.

[1] = Expt. A, seeding 2 × 10^6, p0, day 1
[2] = Expt. A, seeding 2 × 10^6, p0, day 4
[3] = Expt. B, seeding 2 × 10^6, p0, day 1
[4] = Expt. B, seeding 2 × 10^6, p0, day 5
[5] = Expt. B, seeding 2 × 10^6, p0, day 5, Y27632 removed after 24 hours
[6] = Expt. C, seeding 1 × 10^6, p0, day 1
[7] = Expt. C, seeding 1 × 10^6, p0, day 5
[8] = Expt. C, seeding 2 × 10^6, p0, day 1
[9] = Expt. C, seeding 2 × 10^6, p0, day 5
[10] = Expt. C, seeding 2.5 × 10^5, p0, day 1
[11] = Expt. C, seeding 2.5 × 10^5, p0, day 5
[12] = Expt. C, seeding 5 × 10^5, p0, day 1
[13] = Expt. C, seeding 5 × 10^5, p0, day 5
[14] = Expt. C, seeding 10^5, p0, day 1
[15] = Expt. C, seeding 10^5, p0, day 5

T1 sequence (P04626 23-1255): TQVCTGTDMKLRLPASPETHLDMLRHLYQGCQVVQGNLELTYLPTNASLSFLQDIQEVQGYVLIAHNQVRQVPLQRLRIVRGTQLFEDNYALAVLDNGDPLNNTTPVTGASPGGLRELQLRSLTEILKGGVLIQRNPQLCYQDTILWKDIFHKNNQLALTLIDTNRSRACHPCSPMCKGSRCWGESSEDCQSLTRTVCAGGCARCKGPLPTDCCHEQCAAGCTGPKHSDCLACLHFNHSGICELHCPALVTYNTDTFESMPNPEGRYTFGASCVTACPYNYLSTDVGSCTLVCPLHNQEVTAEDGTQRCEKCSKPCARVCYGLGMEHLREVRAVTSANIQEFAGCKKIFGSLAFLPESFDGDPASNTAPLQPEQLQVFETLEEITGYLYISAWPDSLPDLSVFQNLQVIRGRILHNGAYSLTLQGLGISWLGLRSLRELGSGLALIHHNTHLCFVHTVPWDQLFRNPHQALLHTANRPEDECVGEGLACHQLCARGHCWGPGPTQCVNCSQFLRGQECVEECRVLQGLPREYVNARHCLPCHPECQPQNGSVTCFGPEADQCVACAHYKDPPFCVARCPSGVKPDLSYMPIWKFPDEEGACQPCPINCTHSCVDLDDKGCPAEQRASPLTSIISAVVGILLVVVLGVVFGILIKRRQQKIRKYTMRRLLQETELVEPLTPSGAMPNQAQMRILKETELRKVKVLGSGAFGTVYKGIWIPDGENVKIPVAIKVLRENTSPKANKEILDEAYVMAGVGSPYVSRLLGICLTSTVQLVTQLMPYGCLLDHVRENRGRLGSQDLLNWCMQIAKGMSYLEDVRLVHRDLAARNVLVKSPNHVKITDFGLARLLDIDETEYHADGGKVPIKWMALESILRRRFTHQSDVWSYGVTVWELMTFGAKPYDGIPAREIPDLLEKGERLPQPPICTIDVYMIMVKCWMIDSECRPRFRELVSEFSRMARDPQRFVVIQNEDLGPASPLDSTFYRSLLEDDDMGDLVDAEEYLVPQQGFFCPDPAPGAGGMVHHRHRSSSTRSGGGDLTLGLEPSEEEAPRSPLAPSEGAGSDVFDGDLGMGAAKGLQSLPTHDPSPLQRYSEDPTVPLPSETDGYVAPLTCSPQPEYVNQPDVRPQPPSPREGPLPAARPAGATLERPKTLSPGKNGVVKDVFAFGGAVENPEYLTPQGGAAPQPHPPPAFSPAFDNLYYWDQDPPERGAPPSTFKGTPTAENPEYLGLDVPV

autophosphorylation of ErbB2 at tyrosine-1248 (ErbB2): inhibited autophosphorylation
Compound: COc1cc(/C=C(\C#N)C(N)=O)cc(CSc2nc3ccccc3s2)c1O [AG825]
effect on proliferation of hESCs growing in conditioned medium (CM) (BG02 hESCs): significantly inhibited proliferation

Compound: CC(C)(C)c1cc(/C=C(\C#N)C(N)=S)cc(C(C)(C)C)c1O [AG879]
effect on cell growth (BG01v cells; 5 μM): substantially inhibited cell growth
cell death (BG01v cells; 20 μM): caused cell death
effect on proliferation (R1 mouse ES cells; 20 μM, 8 days): may have slowed proliferation
effect on cell growth (R1 mouse ES cells; 50 μM, 8 days): substantially inhibited cell growth
concentration required to inhibit proliferation, mESCs relative to BG01v cells (R1 mouse ES cells; higher for mESCs than for BG01v cells in defined conditions): ~10 ×

Compound: COc1cc2ncnc(Nc3cccc(Cl)c3)c2cc1OC [AG1478]
effect on cell proliferation (BG01v cells; 50 nM-20 μM, DC medium with LongR3-IGF1, FGF2, Activin A): neither DMSO nor AG1478 (50 nM-20 μM) had an apparent affect on cell proliferation
effect on cell proliferation (R1 mouse ES cells; 1-50 μM, 8 days, 10% FBS, 10% KSR, LIF): no apparent affect on cell proliferation

Compound: C[C@@H](N)[C@H]1CC[C@H](C(=O)Nc2ccncc2)CC1 [Y27632]
size of aggregates in initial aggregation phase of suspension culture (BG02 cells; 10 μM, compared to medium without inhibitor): much larger aggregates were formed
initial survival and aggregation of hESCs after initial passage (BG02 cells; 10 μM, first 24 hours): enhanced initial survival and aggregation of hESCs
cells observed when the aggregates were split again (BG02 cells; Expt. A, 10 μM, versus without inhibitor): almost twice as many cells
Cell counts: total (BG02 cells; Expt. A, p1, day 4): 4.6 × 10^6 cells
Cell counts: viable (BG02 cells; Expt. A, p1, day 4): 4.2 × 10^6 cells
viable cells, % (BG02 cells; Expt. A, p1, day 4): 91%
Cell counts: total (BG02 cells; [1]): 1.6 × 10^6 cells
Cell counts: viable (BG02 cells; [1]): 1.2 × 10^6 cells
viable cells, % (BG02 cells; [1]): 74%
Cell counts: total (BG02 cells; [2]): 7.8 × 10^6 cells
Cell counts: viable (BG02 cells; [2]): 7.1 × 10^6 cells
viable cells, % (BG02 cells; [2]): 91%
Cell counts: total (BG02 cells; [3]): 1.9 × 10^6 cells
Cell counts: viable (BG02 cells; [3]): 1.4 × 10^6 cells
viable cells, % (BG02 cells; [3]): 73%
Cell counts: total (BG02 cells; [4]): 1.5 × 10^7 cells
Cell counts: viable (BG02 cells; [4]): 1.4×10^7 cells
viable cells, % (BG02 cells; [4]): 92%
Cell counts: total (BG02 cells; [5]): 1.9 × 10^7 cells
Cell counts: viable (BG02 cells; [5]): 1.8×10^7 cells
viable cells, % (BG02 cells; [5]): 96%
Cell counts: total (BG02 cells; [6]): 8.7 × 10^5 cells
Cell counts: viable (BG02 cells; [6]): 6.6 × 10^5 cells
viable cells, % (BG02 cells; [6]): 76%
Cell counts: total (BG02 cells; [7]): 8.6 × 10^6 cells
Cell counts: viable (BG02 cells; [7]): 7.8 × 10^6 cells
viable cells, % (BG02 cells; [7]): 91%
Cell counts: total (BG02 cells; [8]): 1.9 × 10^6 cells
Cell counts: viable (BG02 cells; [8]): 1.6 × 10^6 cells
viable cells, % (BG02 cells; [8]): 84%
Cell counts: total (BG02 cells; [9]): 1.4 × 10^7 cells
Cell counts: viable (BG02 cells; [9]): 1.2 × 10^7 cells
viable cells, % (BG02 cells; [9]): 90%
Cell counts: total (BG02 cells; [10]): 2.6 × 10^5 cells
Cell counts: viable (BG02 cells; [10]): 2.3 × 10^5 cells
viable cells, % (BG02 cells; [10]): 91%
Cell counts: total (BG02 cells; [11]): 2.7 × 10^6 cells
Cell counts: viable (BG02 cells; [11]): 2.5 × 10^6 cells
viable cells, % (BG02 cells; [11]): 91%
Cell counts: total (BG02 cells; [12]): 4.6 × 10^5 cells
Cell counts: viable (BG02 cells; [12]): 3.5 × 10^5 cells
viable cells, % (BG02 cells; [12]): 75%
Cell counts: total (BG02 cells; [13]): 5.7 × 10^6 cells
Cell counts: viable (BG02 cells; [13]): 5.3 × 10^6 cells
viable cells, % (BG02 cells; [13]): 93%
Cell counts: total (BG02 cells; [14]): 6.8 × 10^4 cells
Cell counts: viable (BG02 cells; [14]): 5.4 × 10^4 cells
viable cells, % (BG02 cells; [14]): 79%
Cell counts: total (BG02 cells; [15]): 1.4 × 10^6 cells
Cell counts: viable (BG02 cells; [15]): 1.3 × 10^6 cells
viable cells, % (BG02 cells; [15]): 92%
expansion of viable cells (BG02 cells; seeded with 1×10^5 cells, 10 μM Y27632, day 5): ~13 fold
yield of cells generated by day 5 (ES cells): increased the yield of cells

Compound: IGF1: insulin-like growth factor
expansion of hESC cultures at physiological levels (hESCs): support the expansion of hESC cultures

Compound: insulin: protein that binds to the insulin receptor
expansion of hESC cultures at physiological levels (hESCs): do not
